The values that follow come from US6875760B2 (Novo Nordisk A/S, priority 1999, dated 2005).

In this assay the target is T1, human glucagon receptor (Homo sapiens, UniProt P47871).
T1 construct: expressed in transfected cells; host or cells: BHK (baby hamster kidney) cells
As to the kind of experiment: Glucagon Binding Assay (III). As to conditions: BHK cell membranes, WGA SPA beads, 125I-glucagon. The method, boiled down:
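Membranes from BHK cells transfected with the human receptor, prepared at 4 °C, were used in a WGA-bead scintillation proximity binding format. Plates were shaken for 4 hours, left to settle 8–48 hours and then counted. Non-specific binding was defined with 500 nM glucagon.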

[1] abbreviates: read-out: Glu Bd Assay (III) IC50.

Read-outs that look alike come from different tables or passages of the source.

T1 sequence (P47871 26-477): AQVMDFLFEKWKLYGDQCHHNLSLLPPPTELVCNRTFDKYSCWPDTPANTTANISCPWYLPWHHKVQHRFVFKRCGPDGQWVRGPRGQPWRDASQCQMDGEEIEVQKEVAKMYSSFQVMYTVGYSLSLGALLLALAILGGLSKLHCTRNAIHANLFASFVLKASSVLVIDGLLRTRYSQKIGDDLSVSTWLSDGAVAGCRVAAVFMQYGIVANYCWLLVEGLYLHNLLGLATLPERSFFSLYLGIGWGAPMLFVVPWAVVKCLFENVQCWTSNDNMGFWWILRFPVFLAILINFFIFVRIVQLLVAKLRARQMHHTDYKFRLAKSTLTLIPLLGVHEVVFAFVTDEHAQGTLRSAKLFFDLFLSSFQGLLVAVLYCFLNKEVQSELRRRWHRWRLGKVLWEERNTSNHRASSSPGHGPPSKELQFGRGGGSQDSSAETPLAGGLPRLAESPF

In the case of `CC(C)(C)[C@H]1CC[C@H](N(Cc2ccc(C(=O)NCCC(=O)O)cc2)C(=O)Nc2ccc(OCC3CC3)cc2)CC1` [Example 241, 3-{4-[1-(trans-4-tert-Butylcyclohexyl)-3-(4-cyclopropylmethoxyphenyl)ureidomethyl]benzoylamino}propionic acid], the IC50 (commonly the midpoint of a concentration-inhibition curve) (Glu Bd Assay (III) IC50 (nM)) turned out to be 140 nM.
`CC(C)(C)[C@H]1CC[C@H](N(Cc2ccc(C(=O)NCCC(=O)O)cc2)C(=O)Nc2ccc(OC(F)(F)F)cc2Br)CC1` [Example 242, 3-{4-[3-(2-Bromo-4-trifluoromethoxyphenyl)-1-(trans-4-tert-butylcyclohexyl)ureidomethyl]benzoylamino}propionic acid] gave an IC50 (Glu Bd Assay (III) IC50 (nM)) of 153 nM.
`CC(C)(C)[C@H]1CC[C@H](N(Cc2ccc(C(=O)NCCC(=O)O)cc2)C(=O)Nc2ccccc2)CC1` [Example 243, 3-{4-[1-(trans-4-tert-Butylcyclohexyl)-3-phenylureidomethyl]benzoylamino}propionic acid] returned an IC50 (Glu Bd Assay (III) IC50 (nM)) of 1090 nM.
With `O=C(O)CCNC(=O)c1ccc(CN(C(=O)Nc2ccc(OC(F)(F)F)cc2)C2CCC(Oc3ccccc3)CC2)cc1` (stereo not shown) [Example 244, 3-{4-[1-(4-Phenoxycyclohexyl)-3-(4-trifluoromethoxyphenyl)ureidomethyl]benzoylamino}propionic acid], under setting [1], the IC50 stood at 528 nM.
For `CCOC(=O)N1CCC(NC(=O)N(Cc2ccc(C(=O)NCCC(=O)O)cc2)[C@H]2CC[C@H](C(C)(C)C)CC2)CC1` [Example 245, 4-{3-(trans-4-tert-Butylcyclohexyl)-3-[4-(2-carboxyethylcarbamoyl)benzyl]ureido}piperidine-1-carboxylic acid ethyl ester], under setting [1], the IC50 turned out to be 4050 nM.
On the same count and under the same terms, then `CC(C)(C)C1CCC(N(Cc2ccc(C(=O)NCCC(=O)O)cc2)C(=O)Nc2ccc(Oc3ccccc3)nc2)CC1` (stereo not shown) [Example 246, 3-{4-[1-(4-tert-Butylcyclohexyl)-3-(6-phenoxypyridin-3-yl)ureidomethyl]benzoylamino}propionic acid], with 146 nM.
In turn, `CC(C)(C)[C@H]1CC[C@H](N(Cc2ccc(C(=O)NCCC(=O)O)cc2)C(=O)Nc2ccc(C#N)cc2OC(F)(F)F)CC1` [Example 247, 3-{4-[1-(trans-4-tert-Butylcyclohexyl)-3-(4-cyano-2-trifluoromethoxyphenyl)ureidomethyl]benzoylamino}propionic acid] returned an IC50 (Glu Bd Assay (III) IC50 (nM)) of 215 nM.
Turning to `O=C(O)CCNC(=O)c1ccc(CN(C(=O)Nc2ccc(OC(F)(F)F)cc2)C2CCC(=C3CC3)CC2)cc1` (stereo not shown) [Example 248, 3-{4-[1-(4-Cyclopropylidenecyclohexyl)-3-(4-trifluoromethoxyphenyl)ureidomethyl]benzoylamino}propionic acid], the IC50 under setting [1] came out at 571 nM.
As to `O=C(O)CCNC(=O)c1ccc(CN(C(=O)Nc2ccc(OC(F)(F)F)cc2)C2CCC(C3CC3)CC2)cc1` (stereo not shown) [Example 249, 3-{4-[1-(4-Cyclopropylcyclohexyl)-3-(4-trifluoromethoxyphenyl)ureidomethyl]benzoylamino}propionic acid], the IC50 under setting [1] was determined as 320 nM.
In turn, `CC(C)(C)[C@H]1CC[C@H](N(Cc2ccc(C(=O)NCCC(=O)O)cc2)C(=O)Nc2ccc(OCC3CC3)cc2C(F)(F)F)CC1` [Example 250, 3-{4-[1-(trans-4-tert-Butylcyclohexyl)-3-(4-cyclopropylmethoxy-2-trifluoromethylphenyl)ureidomethyl]benzoylamino}propionic acid] displayed an IC50 (Glu Bd Assay (III) IC50 (nM)) of 182 nM.
For `CC(C)(C)[C@H]1CC[C@H](N(Cc2ccc(C(=O)NCCC(=O)O)cc2)C(=O)Nc2ccc(OC(F)(F)F)c(C#N)c2)CC1` [Example 251, 3-{4-[1-(trans-4-tert-Butylcyclohexyl)-3-(3-cyano-4-trifluoromethoxyphenyl)ureidomethyl]benzoylamino}propionic acid], the half-inhibitory concentration (IC50) under setting [1] came to 56 nM.
Same read-out and setting: then `CC(C)(C)C1CCC(N(Cc2ccc(C(=O)NCCC(=O)O)cc2)C(=O)Nc2cccc(S(C)(=O)=O)c2)CC1` (stereo not shown) [Example 252, 3-{4-[1-(4-tert-Butylcyclohexyl)-3-(3-methylsulfonylphenyl)ureidomethyl]benzoylamino}propionic acid], with 1320 nM; and `CC(C)(C)[C@H]1CC[C@H](N(Cc2ccc(C(=O)NCCC(=O)O)cc2)C(=O)Nc2cc(-c3ccccc3)n[nH]2)CC1` [Example 253, 3-{4-[1-(4-trans-tert-Butylcyclohexyl)-3-(5-Phenyl-2H-pyrazol-3-yl)ureidomethyl]benzoylamino}propionic acid], with 1170 nM; and `CCOC(=O)c1ccc2nc(NC(=O)N(Cc3ccc(C(=O)NCCC(=O)O)cc3)[C@H]3CC[C@H](C(C)(C)C)CC3)sc2c1` [Example 254, 2-{3-(4-trans-tert-Butylcyclohexyl)-3-[4-(2-carboxyethylcarbamoyl)benzyl]ureido}benzothiazole-6-carboxylic acid ethyl ester], with 266 nM.
Turning to `CC(C)(C)[C@H]1CC[C@H](N(Cc2ccc(C(=O)NCCC(=O)O)cc2)C(=O)Nc2cc(Cl)cc(Cl)c2)CC1` [Example 255, 3-{4-[1-(trans-4-tert-Butylcyclohexyl)-3-(3,5-dichlorophenyl)ureidomethyl]benzoylamino}propionic acid], where the note is “Glu Bd Assay (III) IC50 (nM)”, the IC50 is 80 nM.
Take `N#Cc1cccc(NC(=O)N(Cc2ccc(C(=O)Nc3nn[nH]n3)cc2)c2ccc(C3CCCCC3)cc2)c1` [Example 256, 4-[3-(3-Cyanophenyl)-1-(4-cyclohexylphenyl)ureidomethyl]-N-(2H-tetrazol-5-yl)benzamide]: the concentration for half-maximal inhibition (IC50) under setting [1] was found to be 75 nM.
Still for that read-out and setting: next, `CC(C)(C)c1ccc(N(Cc2ccc(C(=O)Nc3nn[nH]n3)cc2)C(=O)Nc2ccc3ncsc3c2)cc1` [Example 257, 4-[3-Benzothiazol-6-yl-1-(4-tert-butylphenyl)ureidomethyl]-N-(2H-tetrazol-5-yl)benzamide]: 684 nM; `O=C(Nc1nn[nH]n1)c1ccc(CN(C(=O)Nc2ccc3c(c2)S(=O)(=O)CC3)c2ccc(C3CCCCC3)cc2)cc1` [Example 258, 4-[1-(4-Cyclohexylphenyl)-3-(1,1-dioxo-2,3-dihydro-1H-1-benzo[b]thiophen-6-yl)ureidomethyl]-N-(2H-tetrazol-5-yl)benzamide]: 773 nM.
With `CC(C)(C)c1ccc(N(Cc2ccc(C(=O)Nc3nn[nH]n3)cc2)C(=O)Nc2ccc3c(c2)S(=O)(=O)CC3)cc1` [Example 259, 4-[1-(4-tert-Butylphenyl)-3-(1,1-dioxo-2,3-dihydro-1H-benzo[b]thiophen-6-yl)ureidomethyl]-N-(2H-tetrazol-5-yl)benzamide], the IC50 under setting [1] was found to be 1690 nM.
Same read-out and setting: then `CS(=O)(=O)c1ccc(F)c(NC(=O)N(Cc2ccc(C(=O)Nc3nn[nH]n3)cc2)c2ccc(C3CCCCC3)cc2)c1` [Example 260, 4-[1-(4-Cyclohexylphenyl)-3-(2-fluoro-5-methylsulfonylphenyl)ureidomethyl]-N-(2H-tetrazol-5-yl)benzamide], with 149 nM; and `Cc1ccc(S(C)(=O)=O)cc1NC(=O)N(Cc1ccc(C(=O)Nc2nn[nH]n2)cc1)c1ccc(C2CCCCC2)cc1` [Example 261, 4-[1-(4-Cyclohexylphenyl)-3-(5-methylsulfonyl-2-methylphenyl)ureidomethyl]-N-(2H-tetrazol-5-yl)benzamide], with 302 nM.
Take `O=C(Nc1nn[nH]n1)c1ccc(CN(C(=O)Nc2cc(F)cc(C(F)(F)F)c2)c2ccc(C3CCCCC3)cc2)cc1` [Example 262, 4-[1-(4-Cyclohexylphenyl)-3-(3-fluoro-5-trifluoromethylphenyl)ureidomethyl]-N-(2H-tetrazol-5-yl)benzamide]: the IC50 under setting [1] is 18 nM.
